What was measured:
primary hepatocytes = test: Monolayer formation of primary hepatocytes on collagen-coated plates, phase contrast microscope observation; assay type: cell-based, rat; conditions: 50 nM staurosporine, 4 h + 20 h standing culture
Description: In order to isolate primary hepatocytes, rat livers were used and primary hepatocytes were isolated from the rat livers by ordinary methods, that was, by collagenase perfusion followed method and four subsequent low-speed centrifuge isolation. The hepatocytes were suspended in an animal cell culture medium (Williams' E medium) containing 10 nM Dexamethasone and 10% fetal bovine serum, and seeded at a cell concentration of 10×10^4 cell/cm^2 on 6-well cell culture plastic plates coated with type I collagen. For the samples to be treated, staurosporine was added to the medium to a final concentration of 50 nM. Next, they were subjected to standing culture for 4 hours at 37° C. in a CO2 incubator in the presence of 5% (v/v) CO2, and the medium was replaced with Williams' E medium containing 10 nM insulin, 10 nM dexamethasone and 0.7 μg/ml aprotinin. For the samples to be treated, staurosporine was again added to the medium to a final concentration of 50 nM. Finally, after the standing culture for 20 hours, the condition of the cells was observed through a phase contrast microscope.
The results in FIG. 1 show clearly that in the case of the hepatocytes not treated with staurosporine, cell aggregates are formed, which comprises intermittently linked patch-like discontinuous monolayers of one to tens of cells.

[1] = tested on: primary rat hepatocytes monolayer; test: Dye permeation assay using transwell filters (bromphenol-blue, OD 655 nm); assay type: cell-based; conditions: staurosporine-treated monolayer on transwell filters
Description: In parallel with Example 1 above, primary rat hepatocytes were seeded on transwell filters (3-micron pore polytetrafluoroethylene coated with type I collagen) suitable to 24-well cell culture plates, and differences in the tightness of the cell monolayer structure produced by staurosporine treatment were measured by a dye permeation assay.
In the dye permeation assay using transwell filters shown in A of FIG. 2, primary hepatocytes were seeded on transwell filters installed in wells on 24-well cell culture plates, and after the monolayer thereof was formed, 20 μl of dye (0.25% bromphenol-blue dye) was added to the upper liquid layer (medium) on the filter. 50 μl samples were then taken with the passage of time from the lower liquid layer (medium) on the filter at a constant temperature of 37° C., and absorbancy thereof (OD 655 nm) was measured.
In the results of B of FIG. 2, courses with the passage of time of dye permeation through hepatocytes layers formed by conventional methods on transwell filters are indicated by the white circles ◯, while courses of dye permeation through hepatocytes layers formed by the methods of this invention are indicated by black circles ●. […]

CNC1CC2OC(C)(C1OC)n1c3ccccc3c3c4c(c5c6ccccc6n2c5c31)C(=O)NC4 (stereo not drawn) [staurosporine, [9S-(9a,10b,11b,13a)]-9,13-epoxy-2,3,10,11,12,13-hexahydro-10-methoxy-9-methyl-11-(methylamino)-1H,9H-diindolo[1,2,3-gh:3′,2′,1′-1m]pyrrolo[3,4-j][1,7]benzodiazonin-1-one]
cell aggregates formed (monolayer structure) (primary hepatocytes; phase contrast microscope x200): a confluent continuous monolayer sheet of closely adjoining cells
adhesion (attachment) and extension (spreading) of hepatocytes on culture substrate (primary hepatocytes; type I collagen coated plates, versus untreated hepatocytes): improved
permeation of dye through hepatocytes monolayer ([1]; 0.25% bromphenol-blue, 37° C., versus untreated cell layers): much less permeation of dye than that of the untreated cell layers
tightness between cells ([1]; concluded from dye permeation): greatly enhanced

From patent US6632668B2, “Monolayer sheet structure of primary hepatocytes obtained using a protein-phosphorylation inhibitor” (Japan as represented by the Secretary of Agency of …, priority 2000, dated 2003)
